The values that follow come from US20080044358A1, “METHODS FOR LYMPH SYSTEM IMAGING” (priority 2006, published 2008).

Read-outs that look alike come from different tables or passages of the source.

The test system of assay [1] is VX2 tumor bearing rabbits, metastatic iliacal lymph nodes. The assay is described as follows: MR imaging of lymph node metastases in VX2 tumor rabbit model after intravenous injection. It counts as in vivo, New Zealand White rabbits. The note with it: for delineation / differentiation of functional and metastatic lymph node tissue: i.v., MS-325 0.05 mmol Gd/kg, Gd-DTPA 0.2 mmol Gd/kg, intraindividual comparison. As for the experimental part:
New Zealand White rabbits (3-4 kg, n=6) were inoculated intramuscularly into the thigh with 2 to 3 pieces (1×1 mm) of VX2 carcinoma cells to produce metastases in […] nodes. The imaging experiments were performed 3 to 6 weeks after the injection of tumor cells. […] Contrast agents: […] Imaging: Intraindividual comparison of lymphographic effects in […] nodes. day 1: Gd-DTPA (5 to 120 minutes p.i.). day 2: […] Assessment of technical success and quality of MR imaging, and detection of lymph node metastases. Histology: Microscopic examination after H/E staining; correlation with MR findings.

In assay [2] the test system is guinea pigs with stimulated (enlarged) popliteal lymph nodes. The note with it: for ratio of signal intensity lymph node to muscle / % signal enhancement popliteal lymph node: 0.05 mmol/kg i.v. bolus; for % signal enhancement popliteal lymph node: T1-weighted MR 1.5 T. How it is done:
Female guinea pigs (370-450 g, n=3) had their lymph nodes stimulated by egg yolk emulsion (0.1 mL) intramuscularly in the thigh and lower legs on six days. MS-325 (0.05 mmol/kg) was administered as an i.v. bolus
MR system: Head scanner (Allegra, 1.5 Tesla; Siemens AG, Erlangen, Germany), T1-weighted sequence (T1-TSE, TR/TE 666/12 ms, slice thickness 1.1 mm, acquisition time 3:49).
Imaging and analysis: The animals were imaged prior to contrast agent administration and 1, 15, 30, 60, 90, 120, and […] post injection. The percent signal intensity enhancement was calculated in the popliteal lymph nodes and in surrounding muscle. The ratio of signal intensity between the lymph node and the surrounding muscle was also determined.

Setting [3] is: 5 to 15 min after intravenous injection, 0.05 mmol Gd/kg body weight.
The mark [4] stands for this setting: 0 min post injection (prior to contrast agent).

As to `O=C([O-])CN(CCN(CC(=O)[O-])CC(=O)O)CCN(CC(=O)[O-])CC(=O)O.[Gd+3]` [Gd-DTPA, reference compound], in assay [1] (after intravenous injection, 0.2 mmol Gd/kg, T1-weighted MR), the “enhancement in the whole lymph node” value was “only a slight and inhomogeneous enhancement”. Besides, in assay [1], the “delineation / differentiation of functional and metastatic lymph node tissue” value is on record as “does not allow an effective differentiation”.
Consider `O=C([O-])CN(CCN(CC(=O)[O-])C[C@H](COP(=O)([O-])OC1CCC(c2ccccc2)(c2ccccc2)CC1)N(CC(=O)[O-])CC(=O)[O-])CC(=O)[O-].[Gd+3].[H+].[H+].[H+]` [MS-325], for which the “appearance of the metastases (FIGS. 1 and 2, coronal MR images)” value in assay [1] (setting [3]) is on record as “remains dark”. Besides, in assay [1] (setting [3]), the “enhancement in the functional lymph node tissue (FIGS. 1 and 2, coronal MR images)” value is “bright and homogeneous enhancement”. In assay [1] (after intravenous injection, 0.05 mmol Gd/kg, T1-weighted MR), the “enhancement of the metastatic tissue” value was “only a slight enhancement”. Moreover, the “signal increase in the functional lymph node tissue” value in assay [1] (between 5 and 30 min after intravenous injection, 0.05 mmol Gd/kg, T1-weighted MR) was “rapid and strong signal increase”. In assay [1], the “delineation / differentiation of functional and metastatic lymph node tissue” value is recorded as “excellent delineation of the lymph node metastases”. In addition, the “ratio of signal intensity lymph node to muscle” value in assay [2] (setting [4]) turned out to be 1.2 ± 0.1; in assay [2] (1 min post injection), 1.6 ± 0.1; in assay [2] (15 min post injection), 1.4 ± 0.1; in assay [2] (30 min post injection), 1.4 ± 0.1; in assay [2] (60 min post injection), 1.3 ± 0.1; in assay [2] (90 min post injection), 1.3 ± 0.1. In addition, the “ratio of signal intensity lymph node to muscle” value in assay [2] (120 min post injection) is on record as 1.3 ± 0.1; in assay [2] (2440 min post injection) it was 1.1 ± 0.2. The “% signal enhancement popliteal lymph node” value in assay [2] (setting [4]) amounted to 0 ± 0%; in assay [2] (1 min post injection), 87 ± 11%; in assay [2] (15 min post injection), 67 ± 11%; in assay [2] (30 min post injection), 57 ± 6%; in assay [2] (60 min post injection), 45 ± 6%; in assay [2] (90 min post injection), 37 ± 4%. Further, the “% signal enhancement popliteal lymph node” value is recorded as 31 ± 6% in assay [2] (120 min post injection) and −8 ± 14% in assay [2] (2440 min post injection). Further, the “signal and contrast after 24 hours” value in assay [2] (after 24 hours, 0.05 mmol/kg) is “returned to baseline levels”. The “contrast between the lymph node and the surrounding muscle” value in assay [2] (after injection, 0.05 mmol/kg) is reported as “increased”. In addition, the “enhancement of stimulated (enlarged) lymph nodes” value in assay [2] (after injection, 0.05 mmol/kg) is “positive and persistent enhancement”.
